These are literature values, as cited in patent publication US20040224076A1, “Dietetic composition in the form of a salt substitute for table salt” (priority 1998, published 2004).

SMILES strings stand for the structures.

For this series the following is noted: oral supplementation, meta-analysis of 33 studies.

As to `[K+]` [potassium], the “reduction for diastolic pressure” value is reported as 1.97 mm Hg and the “reduction for systolic pressure” value is on record as 3.11 mm Hg.
